Test [1] addresses BTK (phospho-BTK) in human whole blood (Homo sapiens, UniProt Q06187). The test can be described thus: In vitro PD assay in human whole blood (pBTK assay).
Test [2] concerns the target T1, BTK enzyme (Homo sapiens, UniProt Q06187).
T1 construct: purchased Upstate 14-552
The test can be described thus: In vitro BTK kinase assay: BTK-POLYGAT-LS assay. It is filed as biochemical. The conditions noted are these: ATP 10 μM, read-out: IC50 (10uMATP). In a few lines:
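Human BTK activity was measured with final 10 μM ATP and 100 nM polyGAT substrate in pH 7.5 Tris buffer with 10 mM MgCl2, DTT, Triton X-100 and casein.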

Our source for the IC50 values is patent US10759783B2, “Biaryl inhibitors of Bruton'S tyrosine kinase” (BIOGEN MA INC., priority 2013, dated 2020).

Each structure is given as a SMILES string. Where only a bound is given, the exact number is not on record here.

T1 sequence (Q06187 whole entry): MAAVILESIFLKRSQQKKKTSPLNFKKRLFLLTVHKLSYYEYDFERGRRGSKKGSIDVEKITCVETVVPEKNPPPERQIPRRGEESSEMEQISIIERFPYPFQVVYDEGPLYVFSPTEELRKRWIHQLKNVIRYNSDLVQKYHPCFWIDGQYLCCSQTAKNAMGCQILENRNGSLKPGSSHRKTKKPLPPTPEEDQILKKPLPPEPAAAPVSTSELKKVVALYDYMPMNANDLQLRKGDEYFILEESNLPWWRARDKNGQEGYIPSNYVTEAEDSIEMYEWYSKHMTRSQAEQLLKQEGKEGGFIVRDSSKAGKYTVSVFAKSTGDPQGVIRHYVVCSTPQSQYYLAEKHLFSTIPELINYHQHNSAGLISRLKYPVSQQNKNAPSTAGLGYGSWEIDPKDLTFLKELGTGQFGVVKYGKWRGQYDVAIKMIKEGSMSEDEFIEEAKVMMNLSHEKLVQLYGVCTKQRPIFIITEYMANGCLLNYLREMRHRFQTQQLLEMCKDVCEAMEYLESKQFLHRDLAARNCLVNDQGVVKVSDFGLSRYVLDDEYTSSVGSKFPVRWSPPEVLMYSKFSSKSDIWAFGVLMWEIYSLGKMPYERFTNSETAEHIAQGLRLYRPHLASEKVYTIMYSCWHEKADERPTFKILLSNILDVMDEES
BTK (phospho-BTK) in human whole blood, sequence (Q06187 whole entry): as above

As a reminder, the IC50 is the concentration at which inhibition is half-maximal. Consider `Cc1cc(-c2cc(Nc3cc4c(cn3)CN(CCO)CC4)ncn2)ccc1CNC(=O)c1cnc(C(C)(C)C)s1` [Example I-268, 2-tert-butyl-N-[[4-[6-[[7-(2-hydroxyethyl)-6,8-dihydro-5H-2,7-naphthyridin-3-yl]amino]pyrimidin-4-yl]-2-methyl-phenyl]methyl]thiazole-5-carboxamide], for which the IC50 is less than 500 nM in test [1] and less than 10 nM in test [2].

Take `Cc1cc(-c2ccnc(Nc3cnn(C4CCOCC4)c3)n2)ccc1CNC(=O)N1CC(OC(C)C)C1` [Example I-221, 3-isopropoxy-N-(2-methyl-4-(2-((1-(tetrahydro-2H-pyran-4-yl)-1H-pyrazol-4-yl)amino)pyrimidin-4-yl)benzyl)azetidine-1-carboxamide]: the figures for the concentration for half-maximal inhibition (IC50) in test [1] and in test [2] were less than 500 nM and less than 10 nM, respectively.

Turning to `CC(C)(C)CN1CCN(Cc2ccc(-c3ccnc(Nc4cnn(CCO)c4)n3)cc2C(F)(F)F)C(=O)C1` [Example I-350], the IC50 in test [1] was less than 500 nM; in test [2] it was less than 10 nM.

On to `Cn1cc(Nc2nccc(-c3ccc(CNC(=O)c4cnn(C(C)(C)C)c4)c(C(F)(F)F)c3)n2)cn1` [Example I-202, 1-(tert-butyl)-N-(4-(2-((1-methyl-1H-pyrazol-4-yl)amino)pyrimidin-4-yl)-2-(trifluoromethyl)benzyl)-1H-pyrazole-4-carboxamide], for which the IC50 is less than 500 nM in test [1] and less than 10 nM in test [2].

As to `Cc1cc(-c2ccnc(Nc3cnn(C)c3)n2)ccc1CNC(=O)c1nc2c(s1)CCCC2` [Example I-9, N-(2-methyl-4-(2-((1-methyl-1H-pyrazol-4-yl)amino)pyrimidin-4-yl)benzyl)-4,5,6,7-tetrahydrobenzo[d]thiazole-2-carboxamide], the results for the IC50 in test [1] and in test [2] were 500 to 1500 nM and less than 10 nM, respectively.

With `CC(C)OC1CN(C(=O)NC2CCN(C=O)Cc3cc(-c4ccnc(Nc5cnn(C)c5)n4)ccc32)C1` (centres unmarked) [Example I-329, N-[2-formyl-8-[2-[(1-methylpyrazol-4-yl)amino]pyrimidin-4-yl]-1,3,4,5-tetrahydro-2-benzazepin-5-yl]-3-isopropoxy-azetidine-1-carboxamide], the IC50 in test [1] is less than 500 nM; in test [2], less than 10 nM.

Take `Cc1cc(-c2cc(Nc3cc4n(n3)CCN(C)C4C)ncn2)ccc1CNC(=O)N1CCC(C(C)(C)C)C1` (centres unmarked) [Example I-284, 3-tert-butyl-N-[[4-[6-[(4,5-dimethyl-6,7-dihydro-4H-pyrazolo[1,5-a]pyrazin-2-yl)amino]pyrimidin-4-yl]-2-methyl-phenyl]methyl]pyrrolidine-1-carboxamide]: the IC50 in test [1] was less than 500 nM; in test [2] it was less than 10 nM.

Take `Cn1cc(Nc2nccc(-c3ccc(CNC(=O)c4cnn(C(C)(C)C)c4)c(C#N)c3)n2)cn1` [Example I-211, 1-(tert-butyl)-N-(2-cyano-4-(2-((1-methyl-1H-pyrazol-4-yl)amino)pyrimidin-4-yl)benzyl)-1H-pyrazole-4-carboxamide]: the 50% inhibitory concentration (IC50) in test [1] is less than 500 nM; in test [2], less than 10 nM.

`CC(C)OC1CN(C(=O)NC2CCCCc3cc(-c4ccnc(Nc5cnn(CC(C)(C)O)c5)n4)ccc32)C1` (centres unmarked) [Example I-336, N-[2-[2-[[1-(2-hydroxy-2-methyl-propyl)pyrazol-4-yl]amino]pyrimidin-4-yl]-6,7,8,9-tetrahydro-5H-benzo[7]annulen-5-yl]-3-isopropoxy-azetidine-1-carboxamide]: the IC50 is less than 500 nM in test [1] and less than 10 nM in test [2].

Regarding `CC(C)(C)OC1CN(C(=O)NCc2ccc(-c3ccnc(Nc4cnn(C5CC5)c4)n3)cc2C(F)(F)F)C1` [Example I-294, 3-tert-butoxy-N-[[4-[2-[(1-cyclopropylpyrazol-4-yl)amino]pyrimidin-4-yl]-2-(trifluoromethyl)phenyl]methyl]azetidine-1-carboxamide], the results for the half-maximal inhibitory concentration (IC50) in test [1] and in test [2] were less than 500 nM and less than 10 nM, respectively.

`Cc1cc(-c2cc(Nc3cnn(C)c3)ncn2)ccc1CNC(=O)c1cnc(C(C)(C)C)s1` [Example I-64, 2-(tert-butyl)-N-(2-methyl-4-(6-((1-methyl-1H-pyrazol-4-yl)amino)pyrimidin-4-yl)benzyl)thiazole-5-carboxamide]: the IC50 in test [1] was 1500 to 10000 nM; in test [2] it was less than 10 nM.

For the compound `CCn1cc(Nc2nccc(-c3ccc(CNC(=O)c4cnn(C(C)(C)C)c4)c(C)c3)n2)cn1` [Example I-247, 1-(tert-butyl)-N-(4-(2-((1-ethyl-1H-pyrazol-4-yl)amino)pyrimidin-4-yl)-2-methylbenzyl)-1H-pyrazole-4-carboxamide], the concentration for half-maximal inhibition (IC50) is less than 500 nM in test [1] and less than 10 nM in test [2].

Consider `Cc1cc(-c2ccnc(Nc3cnn([C@@H]4CCN(C)C4)c3)n2)ccc1CNC(=O)c1cnc(C(C)(C)C)s1` [Example I-123, (R)-2-(tert-butyl)-N-(2-methyl-4-(2-((1-(1-methylpyrrolidin-3-yl)-1H-pyrazol-4-yl)amino)pyrimidin-4-yl)benzyl)thiazole-5-carboxamide], for which the IC50 in test [1] was less than 500 nM; in test [2] it was less than 10 nM.

For `CC(C)OC1CN(C(=O)NC2CCCOc3cc(-c4ccnc(Nc5cnn(C)c5)n4)ccc32)C1` (centres unmarked) [Example I-335, 3-isopropoxy-N-[8-[2-[(1-methylpyrazol-4-yl)amino]pyrimidin-4-yl]-2,3,4,5-tetrahydro-1-benzoxepin-5-yl]azetidine-1-carboxamide], the IC50 in test [1] is less than 500 nM; in test [2], less than 10 nM.

With `Cc1cc(-c2ccnc(Nc3cnn(C)c3C)n2)ccc1CNC(=O)N1CC(OC(C)(C)C)C1` [Example I-223, 3-(tert-butoxy)-N-(4-(2-((1,5-dimethyl-1H-pyrazol-4-yl)amino)pyrimidin-4-yl)-2-methylbenzyl)azetidine-1-carboxamide], the half-inhibitory concentration (IC50) was 500 to 1500 nM in test [1] and less than 10 nM in test [2].

As for `CC(C)(C)C1CCN(C(=O)NCc2ccc(-c3ccnc(Nc4cnn([C@H]5CCNC5)c4)n3)cc2C(F)(F)F)C1` (stereo partly drawn) [Example I-316, 3-tert-butyl-N-[[4-[2-[[1-[(3S)-pyrrolidin-3-yl]pyrazol-4-yl]amino]pyrimidin-4-yl]-2-(trifluoromethyl)phenyl]methyl]pyrrolidine-1-carboxamide], the IC50 in test [1] is less than 500 nM; in test [2], less than 10 nM.

With `CC(C)(C)OC1CN(C(=O)NC2CCCCc3cc(-c4ccnc(Nc5cnn(C6CCOCC6)c5)n4)ccc32)C1` (centres unmarked) [Example I-179, 3-(tert-butoxy)-N-(2-(2-((1-(tetrahydro-2H-pyran-4-yl)-1H-pyrazol-4-yl)amino)pyrimidin-4-yl)-6,7,8,9-tetrahydro-5H-benzo[7]annulen-5-yl)azetidine-1-carboxamide], the IC50 in test [1] was less than 500 nM; in test [2] it was less than 10 nM.

For `Cc1c(Nc2nccc(-c3ccc(CNC(=O)N4CCC(C(C)(C)C)C4)c(CCO)c3)n2)cnn1C` (centres unmarked) [Example I-321, 3-tert-butyl-N-[[4-[2-[(1,5-dimethylpyrazol-4-yl)amino]pyrimidin-4-yl]-2-(2-hydroxyethyl)phenyl]methyl]pyrrolidine-1-carboxamide], the IC50 is less than 500 nM in test [1] and less than 10 nM in test [2].

`Cc1cc(-c2ccnc(Nc3cnn(C4CCC(C(=O)O)CC4)c3)n2)ccc1CNC(=O)c1cnn(C(C)(C)C)c1` (centres unmarked) [Example I-292, 4-[4-[[4-[4-[[(1-tert-butylpyrazole-4-carbonyl)amino]methyl]-3-methyl-phenyl]pyrimidin-2-yl]amino]pyrazol-1-yl]cyclohexanecarboxylic acid]: the IC50 is less than 500 nM in test [1] and less than 10 nM in test [2].

Regarding `Cc1cc(-c2ccnc(Nc3cnn(C)c3)n2)ccc1CNC(=O)N1CCOC(C(C)C)C1` (centres unmarked) [Example I-24, 2-isopropyl-N-(2-methyl-4-(2-((1-methyl-1H-pyrazol-4-yl)amino)pyrimidin-4-yl)benzyl)morpholine-4-carboxamide], the half-inhibitory concentration (IC50) lay within 1500 to 10000 nM in test [1] and 10 to 99 nM in test [2].

`COCCn1cc(Nc2nccc(-c3ccc4c(c3)CCCCC4NC(=O)N3CCC(C(C)(C)C)C3)n2)cn1` (centres unmarked) [Example I-186, 3-(tert-butyl)-N-(2-(2-((1-(2-methoxyethyl)-1H-pyrazol-4-yl)amino)pyrimidin-4-yl)-6,7,8,9-tetrahydro-5H-benzo[7]annulen-5-yl)pyrrolidine-1-carboxamide]: the half-maximal inhibitory concentration (IC50) in test [1] was less than 500 nM; in test [2] it was less than 10 nM.

Take `Cc1cc(-c2cc(Nc3cc4n(n3)CCOC4)ncn2)ccc1CNC(=O)c1cnc(C(C)(C)C)s1` [Example I-276, 2-tert-butyl-N-[[4-[6-(6,7-dihydro-4H-pyrazolo[5,1-c][1,4]oxazin-2-ylamino)pyrimidin-4-yl]-2-methyl-phenyl]methyl]thiazole-5-carboxamide]: the IC50 in test [1] was less than 500 nM; in test [2], less than 10 nM.

Consider `CC(C)(O)Cn1cc(Nc2nccc(-c3ccc4c(c3)CCCCC4NC(=O)N3CC(OC(C)(C)C)C3)n2)cn1` (centres unmarked) [Example I-337, 3-tert-butoxy-N-[2-[2-[[1-(2-hydroxy-2-methyl-propyl)pyrazol-4-yl]amino]pyrimidin-4-yl]-6,7,8,9-tetrahydro-5H-benzo[7]annulen-5-yl]azetidine-1-carboxamide], for which the IC50 in test [1] was less than 500 nM; in test [2], less than 10 nM.

`Cc1cc(-c2ccnc(Nc3cnn(C)c3)n2)ccc1CNC(=O)c1ccc(C(C)(C)C)cn1` [Example I-6, 5-(tert-butyl)-N-(2-methyl-4-(2-((1-methyl-1H-pyrazol-4-yl)amino)pyrimidin-4-yl)benzyl)picolinamide]: the IC50 was 500 to 1500 nM in test [1] and less than 10 nM in test [2].

Turning to `Cc1cc(-c2ccnc(N)n2)ccc1CNC(=O)c1cc2c(s1)CCCC2` [Example I-142, N-(4-(2-aminopyrimidin-4-yl)-2-methylbenzyl)-4,5,6,7-tetrahydrobenzo[b]thiophene-2-carboxamide], the IC50 in test [1] was 1500 to 10000 nM; in test [2], less than 10 nM.
